Measurements from ChEMBL document CHEMBL1151425, “RNAIII-inhibiting peptide affects biofilm formation in a rat model of staphylococcal ureteral stent infection” (Antimicrob Agents Chemother, 2007).

Experiments:
Rattus norvegicus [1] = organism: Rattus norvegicus; experiment: Toxicity in Staphylococcus aureus Smith diffuse infected Wistar rat containing 1 ug/ml drug-coated ureteral stent assessed as mortality; format: organism-based; settings: in vivo, other
Staphylococcus aureus [2] = experiment: Antimicrobial activity against Staphylococcus aureus Smith diffuse infected in Wistar rat ureteral stent infection model assessed as bacterial count in urine at 10 mg/kg, ip after 48 hrs; format: functional; settings: route intraperitoneal
Rattus norvegicus [3] = experiment: Toxicity in Staphylococcus aureus Smith diffuse infected Wistar rat assessed as mortality at 10 mg/kg, ip; format: organism-based; parameters: dose 10 mg/kg, route intraperitoneal; settings: in vivo
Rattus norvegicus [4] = experiment: Toxicity in Staphylococcus aureus Smith diffuse infected Wistar rat containing 1 ug/ml drug-coated ureteral stent assessed as mortality in presence of 10 mg/kg, ip teicoplanin; format: organism-based; parameters: dose 10 mg/kg, route intraperitoneal; settings: in vivo
Rattus norvegicus [5] = organism: Rattus norvegicus; experiment: Toxicity in Staphylococcus aureus Smith diffuse infected Wistar rat containing 1 ug/ml drug-coated ureteral stent assessed as drug-related adverse effects; format: organism-based; settings: in vivo, other
Staphylococcus aureus [6] = experiment: Antimicrobial activity against Staphylococcus aureus Smith diffuse infected in Wistar rat ureteral stent infection model assessed as bacterial count on ureteral stent at 10 mg/kg, ip after 48 hrs; format: functional; settings: route intraperitoneal
Rattus norvegicus [7] = experiment: Toxicity in Staphylococcus aureus Smith diffuse infected Wistar rat containing 1 ug/ml drug-coated ureteral stent assessed as drug-related adverse effects in presence of 10 mg/kg, ip teicoplanin; format: organism-based; parameters: dose 10 mg/kg, route intraperitoneal; settings: in vivo
Rattus norvegicus [8] = experiment: Toxicity in Staphylococcus aureus Smith diffuse infected Wistar rat assessed as drug-related adverse effects at 10 mg/kg, ip; format: organism-based; parameters: dose 10 mg/kg, route intraperitoneal; settings: in vivo
Staphylococcus aureus [9] = experiment: Antimicrobial activity against Staphylococcus aureus Smith diffuse infected in Wistar rat ureteral stent infection model containing 1 ug/ml drug-coated stent assessed as bacterial count on ureteral stent after 48 hrs; format: functional
Staphylococcus aureus [10] = experiment: Potentiation of teicoplanin-induced antimicrobial activity against Staphylococcus aureus Smith diffuse infected in Wistar rat ureteral stent infection model containing drug-coated stent assessed as bacterial count in urine after 48 hrs; format: functional
Staphylococcus aureus [11] = experiment: Potentiation of teicoplanin-induced antimicrobial activity against Staphylococcus aureus Smith diffuse infected in Wistar rat ureteral stent infection model containing drug-coated stent assessed as bacterial count on stent after 48 hrs; format: functional
Staphylococcus aureus [12] = experiment: Antimicrobial activity against Staphylococcus aureus Smith diffuse infected in Wistar rat ureteral stent infection model containing 1 ug/ml drug-coated stent assessed as bacterial count in urine after 48 hrs; format: functional
Staphylococcus aureus [13] = experiment: Antimicrobial activity against Staphylococcus aureus Smith diffuse infected in Wistar rat ureteral stent infection model; format: functional

`CC(=O)N[C@@H]1[C@H](Oc2c3cc4cc2Oc2ccc(cc2Cl)[C@@H](O[C@@H]2O[C@@H](CO)[C@@H](O)[C@H](O)[C@@H]2NC(C)=O)[C@@H]2NC(=O)[C@H](NC(=O)[C@@H]4NC(=O)[C@H]4NC(=O)[C@@H](Cc5ccc(c(Cl)c5)O3)NC(=O)[C@H](N)c3ccc(O)c(c3)Oc3cc(O)cc4c3)c3ccc(O)c(c3)-c3c(O[C@H]4O[C@H](CO)[C@@H](O)[C@@H](O)[C@@H]4O)cc(O)cc3[C@@H](C(=O)O)NC2=O)O[C@@H](CO)[C@@H](O)[C@@H]1O` was tested, and the Activity (Rattus norvegicus [1]) was “Non-toxic”, the CFU (Staphylococcus aureus [2]) was 2.9 ×10⁴ /ml and the Activity (Rattus norvegicus [3]) was “Non-toxic”. The Activity (Rattus norvegicus [4]) was “Non-toxic”, the Activity (Rattus norvegicus [5]) was “Non-toxic” and the CFU (Staphylococcus aureus [6]) was 3.8 ×10³ /ml. The Activity (Rattus norvegicus [7]) was “Non-toxic” and the Activity (Rattus norvegicus [8]) was “Non-toxic”.

In the case of H-YSPWTNF-NH2, the CFU (Staphylococcus aureus [9]) is reported as 67 ×10³ /ml, the Activity (Rattus norvegicus [1]) is reported as “Non-toxic” and the Activity (Rattus norvegicus [4]) is reported as “Non-toxic”. The CFU (Staphylococcus aureus [10]) was <10 mL⁻¹, the Activity (Rattus norvegicus [5]) was “Non-toxic” and the CFU (Staphylococcus aureus [11]) was <10 mL⁻¹. The Activity (Rattus norvegicus [7]) was “Non-toxic”, the CFU (Staphylococcus aureus [12]) was 4 ×10⁴ /ml and the Activity (Rattus norvegicus [8]) was “Non-toxic”. The MIC (Staphylococcus aureus [13]) was 1 µg/mL.
